Data: PubChem BioAssay AID2060912 (Molecular Pharmacology Branch, DTP, NCI, 2025)

Test system: HUVEC/MSC spheroids viability
Experiment: Human HUVEC/MSC cell line growth inhibition [KRAS2];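 for viability, T/C: percent of DMSO vehicle control luminescence so 100% = untreated viability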
Conditions: for viability, T/C: stronger effect = lower value
Procedure, shortened: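 Stroma-only multicellular spheroids, formed from HUVEC and human MSCs at passages </=5, received RAS-pathway inhibitors with or without a second targeted drug. Dosing followed half-log dilutions from clinically achievable levels.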

[1] = curve of first compound, second compound 0.0316 µM
[2] = curve of first compound, second compound 0.1 µM
[3] = curve of first compound, second compound 0.316 µM
[4] = curve of first compound, second compound 1 µM
[5] = curve of first compound, second compound 3.16 µM
[6] = curve of first compound, second compound 10 µM
[7] = second compound 0.0316 µM, first compound 0.0316 µM
[8] = second compound 0.0316 µM, first compound 0.1 µM
[9] = second compound 0.0316 µM, first compound 0.316 µM
[10] = second compound 0.0316 µM, first compound 1 µM
[11] = second compound 0.1 µM, first compound 0.0316 µM
[12] = second compound 0.1 µM, first compound 0.1 µM
[13] = second compound 0.1 µM, first compound 0.316 µM
[14] = second compound 0.1 µM, first compound 1 µM
[15] = second compound 0.316 µM, first compound 0.0316 µM
[16] = second compound 0.316 µM, first compound 0.1 µM
[17] = second compound 0.316 µM, first compound 0.316 µM
[18] = second compound 0.316 µM, first compound 1 µM
[19] = second compound 1 µM, first compound 0.0316 µM
[20] = second compound 1 µM, first compound 0.1 µM
[21] = second compound 1 µM, first compound 0.316 µM
[22] = second compound 1 µM, first compound 1 µM
[23] = second compound 3.16 µM, first compound 0.0316 µM
[24] = second compound 3.16 µM, first compound 0.1 µM
[25] = second compound 3.16 µM, first compound 0.316 µM
[26] = second compound 3.16 µM, first compound 1 µM
[27] = second compound 10 µM, first compound 0.0316 µM
[28] = second compound 10 µM, first compound 0.1 µM
[29] = second compound 10 µM, first compound 0.316 µM
[30] = second compound 10 µM, first compound 1 µM

## CCNC(=O)CC1N=C(c2ccc(Cl)cc2)c2cc(OC)ccc2-n2c(C)nnc21 (stereo unspecified) + COc1cc2nc(C)nc(NC(C)c3cc(N)cc(C(F)(F)F)c3)c2cc1OC1CCOC1
[1]
  IC50: > 10000 nM
[2]
  IC50: > 10000 nM
[3]
  IC50: > 10000 nM
[4]
  IC50: > 10000 nM
[5]
  IC50: > 10000 nM
[6]
  IC50: > 10000 nM
[7]
  viability, T/C: 89.6%
[8]
  viability, T/C: 94%
[9]
  viability, T/C: 94.3%
[10]
  viability, T/C: 113%
Second compound 0.0316 µM, first compound 3.16 µM
  viability, T/C: 114%
Second compound 0.0316 µM, first compound 10 µM
  viability, T/C: 120%
[11]
  viability, T/C: 78.7%
[12]
  viability, T/C: 86.2%
[13]
  viability, T/C: 89.3%
[14]
  viability, T/C: 85.6%
Second compound 0.1 µM, first compound 3.16 µM
  viability, T/C: 124%
Second compound 0.1 µM, first compound 10 µM
  viability, T/C: 84.3%
[15]
  viability, T/C: 86.4%
[16]
  viability, T/C: 90.2%
[17]
  viability, T/C: 105%
[18]
  viability, T/C: 99.6%
Second compound 0.316 µM, first compound 3.16 µM
  viability, T/C: 89.5%
Second compound 0.316 µM, first compound 10 µM
  viability, T/C: 88.5%
[19]
  viability, T/C: 89.8%
[20]
  viability, T/C: 79.9%
[21]
  viability, T/C: 73%
[22]
  viability, T/C: 105%
Second compound 1 µM, first compound 3.16 µM
  viability, T/C: 100%
Second compound 1 µM, first compound 10 µM
  viability, T/C: 90%
[23]
  viability, T/C: 73.5%
[24]
  viability, T/C: 81.1%
[25]
  viability, T/C: 75.9%
[26]
  viability, T/C: 82.3%
Second compound 3.16 µM, first compound 3.16 µM
  viability, T/C: 84.6%
Second compound 3.16 µM, first compound 10 µM
  viability, T/C: 109%
[27]
  viability, T/C: 60.6%
[28]
  viability, T/C: 55.9%
[29]
  viability, T/C: 69.5%
[30]
  viability, T/C: 70%
Second compound 10 µM, first compound 3.16 µM
  viability, T/C: 82.1%
Second compound 10 µM, first compound 10 µM
  viability, T/C: 74.8%

## CC(=O)OC12COC1CC(O)C1(C)C(=O)C(O)C3=C(C)C(OC(=O)C(O)C(NC(=O)OC(C)(C)C)c4ccccc4)CC(O)(C(OC(=O)c4ccccc4)C21)C3(C)C (stereo unspecified)
Compound 0.00949 µM
  viability, T/C: 45.1% [middle of 5 runs]
Compound 0.03 µM
  viability, T/C: 44.2% [middle of 5 runs]
Compound 0.0949 µM
  viability, T/C: 47.2% [middle of 5 runs]
Compound 0.3 µM
  viability, T/C: 47.1% [middle of 4 runs]
Compound 0.949 µM
  viability, T/C: 47.9% [middle of 5 runs]
Compound 3 µM
  viability, T/C: 58.1% [middle of 5 runs]
Curve of compound
  IC50: < 9.49 nM

## CCN1CCN(Cc2ccc(Nc3ncc(F)c(-c4cc(F)c5nc(C)n(C(C)C)c5c4)n3)nc2)CC1 + CNCc1ccccc1-c1csc(C(C)Nc2nc(C)nc3cc(OC)c(OC)cc23)c1
[1]
  IC50: > 1000 nM
[2]
  IC50: > 1000 nM
[3]
  IC50: > 1000 nM
[4]
  IC50: > 1000 nM
[5]
  IC50: 563 nM
[6]
  IC50: < 3.16 nM
Second compound 0.0316 µM, first compound 0.00316 µM
  viability, T/C: 100%
Second compound 0.0316 µM, first compound 0.01 µM
  viability, T/C: 93.7%
[7]
  viability, T/C: 68.7%
[8]
  viability, T/C: 96.5%
[9]
  viability, T/C: 107%
[10]
  viability, T/C: 140%
Second compound 0.1 µM, first compound 0.00316 µM
  viability, T/C: 91%
Second compound 0.1 µM, first compound 0.01 µM
  viability, T/C: 96.2%
[11]
  viability, T/C: 83%
[12]
  viability, T/C: 85.6%
[13]
  viability, T/C: 107%
[14]
  viability, T/C: 155%
Second compound 0.316 µM, first compound 0.00316 µM
  viability, T/C: 78.2%
Second compound 0.316 µM, first compound 0.01 µM
  viability, T/C: 97.7%
[15]
  viability, T/C: 79.5%
[16]
  viability, T/C: 92.7%
[17]
  viability, T/C: 102%
[18]
  viability, T/C: 113%
Second compound 1 µM, first compound 0.00316 µM
  viability, T/C: 54.9%
Second compound 1 µM, first compound 0.01 µM
  viability, T/C: 90.8%
[19]
  viability, T/C: 91.8%
[20]
  viability, T/C: 81.4%
[21]
  viability, T/C: 114%
[22]
  viability, T/C: 119%
Second compound 3.16 µM, first compound 0.00316 µM
  viability, T/C: 83.8%
Second compound 3.16 µM, first compound 0.01 µM
  viability, T/C: 103%
[23]
  viability, T/C: 95.5%
[24]
  viability, T/C: 92.8%
[25]
  viability, T/C: 123%
[26]
  viability, T/C: 0.46%
Second compound 10 µM, first compound 0.00316 µM
  viability, T/C: 0.4%
Second compound 10 µM, first compound 0.01 µM
  viability, T/C: 0.42%
[27]
  viability, T/C: 0.47%
[28]
  viability, T/C: 0.41%
[29]
  viability, T/C: 0.39%
[30]
  viability, T/C: 0.31%
